Data reported in US12599609B2, “Methods of treating fuchs endothelial corneal dystrophy after descemetorhexis” (KOWA COMPANY, LTD., priority 2021, dated 2026).
Where a name gives a salt, the structure may show the parent alone.

System: patients with FECD after descemetorhexis
Experiment: Phase 2 study of ripasudil eye drops after descemetorhexis in patients with Fuchs endothelial corneal dystrophy
Assay type: in vivo, human
Details: BID and QID dosing of a 0.4% formulation, topical to the eye
Text: As a condition of participating in the clinical study described in Example 3, each patient will undergo descemetorhexis of a study eye selected by the investigator for surgery. A digital photo of the study eye is taken immediately before and immediately after the descemetorhexis. The investigator will perform descemetorhexis to remove central confluent guttae, removing an area of Descemet membrane with a diameter of 4.5 to 5.5 mm. The longest diameter and the shortest diameter must be recorded. Detailed procedures for performing descemetorhexis are described in several literature references, including, for example, Macsai M S, Shiloach M. Cornea. 2019; 38:529-534, and Moloney G, Congote D G, Hirnschall N, et al. Cornea. 2020 Jul. 31. doi: 10.1097/ICO.0000000000002437. Online ahead of print.
Recommended post-descemetorhexis concomitant therapy consists of broad spectrum antibiotic (0.5% moxifloxacin hydrochloride) instilled at least once daily for 1 week and glucocorticoid (1% prednisolone acetate) instilled 3 times daily for the first 7 days, followed by once daily for the next 7 days, and terminated thereafter. The investigator may add antibiotic and glucocorticoid dosing after this 14 days as rescue therapy if the investigator judges it necessary. When more than 1 different eye drop is administered (including study drug), the study drug must be administered first, followed by any non-study eye drop (after at least 5 minutes have passed).
In this U.S. FDA approved study, the primary objective is to investigate the effect of K-321 dosed for 12 weeks on central ECD in patients with FECD after descemetorhexis. […]

C[C@H]1CNCCCN1S(=O)(=O)c1cccc2cncc(F)c12 [ripasudil hydrochloride, Ripasudil]
demonstrated particular benefit: improving best corrected visual acuity (BCVA) | improving central corneal endothelial corneal density (ECD) | reduction of corneal edema
